Measurements taken from the supplement of paper PMC10307832.

Tests used:
Experiment in all cases: relative viability (nuclei count vs DMSO), 5 days (fraction); higher = more cells survive
[1] = compound: CC1=CC=C(C=C1)C(=O)CN2C3=C(CCCC3)SC2=N [Pifithrin_alpha] + CC(=O)c1c(C)c2cnc(Nc3ccc(N4CCNCC4)cn3)nc2n(C2CCCC2)c1=O [Palbociclib] (partner 0.5 µM)
Outline: (§1)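 Five library-drug doses in √10 steps were combined with a fixed anchor-drug dose, or a single drug was given alone, by pin tool to lung cancer cell lines in 1536-well plates the day after seeding. Nuclei were stained and counted after 5 days. Relative viability is the nuclei count in treated wells over that in vehicle wells, taken as the median of duplicate plates.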

[2] = compound: CC1=CC=C(C=C1)C(=O)CN2C3=C(CCCC3)SC2=N [Pifithrin_alpha] + Cc1nc(Nc2ncc(C(=O)Nc3c(C)cccc3Cl)s2)cc(N2CCN(CCO)CC2)n1 [Dasatinib] (partner 0.075 µM)
Outline: as §1

Axitinib + OSI-027 = compound: CNC(=O)c1ccccc1Sc1ccc2c(/C=C/c3ccccn3)n[nH]c2c1 [Axitinib] + COc1cccc2cc(-c3nc([C@H]4CC[C@H](C(=O)O)CC4)n4ncnc(N)c34)[nH]c12 [OSI-027] (partner 0.5 µM)
Outline: as §1

Axitinib + AZD7762 = compound: CNC(=O)c1ccccc1Sc1ccc2c(/C=C/c3ccccn3)n[nH]c2c1 [Axitinib] + NC(=O)Nc1cc(-c2cccc(F)c2)sc1C(=O)N[C@H]1CCCNC1 [AZD7762] (partner 0.2 µM)
Outline: as §1

Row | Cell Line | relative viability ([1]; first compound 1 µM) | relative viability ([1]; first compound 3.162 µM) | relative viability ([1]; first compound 10 µM) | relative viability ([1]; first compound 31.62 µM) | relative viability ([1]; first compound 100 µM) | relative viability ([2]; first compound 1 µM) | relative viability ([2]; first compound 3.162 µM) | relative viability ([2]; first compound 10 µM) | relative viability ([2]; first compound 31.62 µM) | relative viability ([2]; first compound 100 µM) | relative viability (Axitinib + OSI-027; first compound 0.005 µM) | relative viability (Axitinib + OSI-027; first compound 0.01581 µM) | relative viability (Axitinib + OSI-027; first compound 0.05 µM) | relative viability (Axitinib + OSI-027; first compound 0.1581 µM) | relative viability (Axitinib + OSI-027; first compound 0.5 µM) | relative viability (Axitinib + AZD7762; first compound 0.005 µM) | relative viability (Axitinib + AZD7762; first compound 0.01581 µM) | relative viability (Axitinib + AZD7762; first compound 0.05 µM) | relative viability (Axitinib + AZD7762; first compound 0.1581 µM) | relative viability (Axitinib + AZD7762; first compound 0.5 µM)
1 | HOP-62 | 0.45 | 0.483 | 0.396 | 0.335 | 0.52 | 0.726 | 0.589 | 0.578 | 0.698 | 0.638 | 0.825 | 0.865 | 0.814 | 0.872 | 0.923 | 0.654 | 0.548 | 0.592 | 0.728 | 0.97
2 | LC-2-ad | 0.514 | 0.503 | 0.51 | 0.375 | 0.432 | – | 0.492 | 0.347 | – | 0.437 | 0.932 | 0.827 | 0.907 | 0.8 | 0.807 | 0.845 | 0.845 | 0.834 | 0.841 | 0.952
3 | LCLC-97TM1 | – | 0.293 | 0.204 | – | 0.225 | 1.08 | 0.846 | 0.984 | 0.428 | 0.954 | 0.589 | 0.51 | 0.427 | 0.48 | 0.475 | 0.22 | 0.327 | 0.218 | 0.281 | 0.374
4 | LCLC-103H | 0.525 | 0.518 | 0.472 | 0.464 | 0.456 | 0.518 | 0.474 | 0.498 | 0.43 | 0.425 | 0.461 | 0.487 | 0.472 | 0.432 | 0.535 | 0.843 | 0.752 | 0.816 | 0.836 | 0.674
5 | LK-2 | 0.686 | 0.644 | 0.687 | – | 0.782 | 0.249 | 0.246 | 0.28 | – | 0.307 | 0.202 | 0.168 | 0.193 | 0.191 | 0.186 | 0.385 | 0.335 | 0.279 | 0.447 | 0.307
6 | LOU-NH91 | 0.471 | 0.537 | 0.516 | 0.491 | 0.523 | 0.371 | 0.501 | 0.535 | 0.475 | 0.493 | 0.736 | 0.513 | 0.745 | 0.719 | 0.707 | 0.806 | 0.723 | 0.814 | 0.761 | 0.78
7 | NCI-H520 | 0.203 | 0.254 | 0.26 | 0.205 | 0.222 | 0.299 | 0.204 | 0.18 | 0.243 | 0.263 | 0.234 | 0.218 | 0.216 | – | 0.24 | – | – | – | – | –
8 | NCI-H596 | – | – | – | – | – | 0.54 | 0.588 | 0.583 | 0.494 | 0.503 | 0.893 | 0.649 | 0.855 | 0.797 | 0.556 | 1.14 | 0.978 | 1.12 | 1.12 | 0.943
9 | NCI-H661 | 0.397 | 0.4 | 0.36 | 0.386 | 0.334 | 0.967 | 0.842 | 0.801 | 0.62 | 0.76 | 0.741 | 0.754 | 0.721 | 0.617 | 0.855 | – | – | – | – | –
